We go through twelve compounds from PubChem BioAssay (NCI).

Holding throughout (assay): NCI tumour cell line growth inhibition, 48 h
Assay [1] relates to A498 renal.
In assay [2] the test system is HCC-2998 colon.
In assay [3] the test system is HS 578T breast.
The subject of assay [4] is K-562 leukemia.
Assay [5] relates to OVCAR-3 ovarian.
Assay [6] deals with OVCAR-8 ovarian.
The test system of assay [7] is RXF 393 renal.
For assay [8], the system named is SK-MEL-2 melanoma.
Assay [9] has as its system SNB-75 CNS.
Assay [10] has as its system TK-10 renal.

Values joined by “and” are separate entries in the source; they are usually repeats but may differ in a detail not shown here. Equal entries are not always repeated.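 Five concentrations, 48 hours, 96-well plates. GI50 = concentration required for 50% inhibition of growth. TGI: concentration producing complete growth inhibition.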

As for `O=C(NCCc1ccccn1)OCc1nc2nc(Cl)nc(N3CCOCC3)c2[nH]1`, the GI50 in [1] is 2.64 µM; in assay [2] it was 1.74 µM; in assay [3], 2.71 µM; in assay [4], 2.07 µM; in [5], 1.26 µM; in assay [6], 3.17 µM. Moreover, the GI50 is 1.12 µM in [7], 4.16 µM in assay [8], 2.42 µM in assay [9] and 1.94 µM in assay [10]. The TGI in assay [1] came to 10.4 µM; in [2] it was 3.33 µM; in assay [3] it was 9.77 µM; in assay [4] it was 14.3 µM; in assay [5] it was 2.73 µM; in assay [6], 15.4 µM. For the same compound, the TGI is 2.4 µM in [7], 15.6 µM in assay [8], 15.5 µM in assay [9] and 4 µM in [10].

For the compound `COc1ccc(C(O)c2cc3c(N)c(C(=O)Nc4cccc(Cl)c4)sc3nc2C)cc1` (stereo unspecified), the GI50 was 0.659 µM in assay [1]; 1.76 µM in assay [2]; 0.825 µM in [3]; 1.03 µM in assay [4]; 0.843 µM in assay [5]; 1.45 µM in assay [6]. For the same compound, the GI50 was 0.31 µM in assay [7], 1.29 µM in assay [8] and 0.22 µM in assay [9]. Moreover, the TGI in assay [1] is 2.38 µM; in assay [2], above 35.9 µM; in [4] it was above 37.5 µM; in [5], 2.34 µM; in assay [6], above 47.8 µM; in [7], 1.76 µM. Further, the TGI is 42.7 µM in assay [8], 16.6 µM in assay [9] and above 50.3 µM in assay [10].

With `c1ccc(-c2nc(N3CCOCC3)c3c4c(sc3n2)CCCCCC4)nc1`, the GI50 in assay [1] was 1.65 µM; in [2], 6.99 µM; in [3], 3.37 µM; in assay [4] it was 3.47 µM; in assay [5] it was 4.6 µM; in assay [6], 5.08 µM. Also, the GI50 in assay [7] was 8.38 µM; in assay [8], 7.9 µM; in assay [9], 7.1 µM; in [10], 9.28 µM. The TGI in assay [1] was 8.63 µM; in [2] it was 19.8 µM; in assay [3] it was 42.3 µM; in assay [4] it was 23.7 µM; in [5], 16.2 µM; in assay [6], 30.5 µM. Besides, the TGI in assay [7] was determined as 25.5 µM; in assay [8] it was 21.7 µM; in [9], 20.8 µM; in assay [10] it was 25.5 µM.

`Cc1nn2c(/C=C3/C(=O)Nc4cc(Cl)ccc43)c(-c3ccccc3)nc2s1`: the GI50 in [1] is 15.5 µM; in [2], above 100 µM; in [3] it was 3.52 µM; in assay [4], 4.27 µM; in assay [5] it was 1.89 µM; in assay [6] it was 2.89 µM. Also, the GI50 in [7] is 2.27 µM; in assay [8], 7.07 µM; in [9], 1.6 µM; in assay [10], 2.34 µM. Also, the TGI in assay [1] was 72 µM; in assay [2] it was above 100 µM; in [3], above 100 µM; in assay [4], above 100 µM; in assay [5] it was 3.68 µM; in [6], above 100 µM. The TGI in [7] was determined as 5.97 µM; in [8] it was 46.7 µM; in assay [9], 8.44 µM; in assay [10], 4.14 µM.

For the compound `COc1cc2c(cc1OCCCCCCN1CCN(CC(=O)Nc3ccc(Cl)cc3C(=O)c3ccccc3Cl)CC1)N=CC1CCCN1C2=O` (stereo unspecified), the GI50 in assay [1] is 0.535 µM; in [2], 0.173 µM; in [3], 0.243 µM; in assay [4], 0.193 µM; in [5] it was 0.189 µM; in [6] it was 0.201 µM. The GI50 is 0.168 µM in assay [7], 0.217 µM in assay [8], 0.169 µM in assay [9] and 0.497 µM in assay [10]. Besides, the TGI is 1 µM in assay [1]; 0.314 µM in [2]; 0.589 µM in [3]; 0.396 µM in [5]; 0.607 µM in [6]; 0.324 µM in [7]. Moreover, the TGI in assay [8] was determined as 0.556 µM; in assay [9], 0.472 µM; in assay [10] it was 1.17 µM.

Regarding `Cc1ccc(S(=O)(=O)c2nc(-c3ccccc3)oc2S(C)=O)cc1` (stereo unspecified), the GI50 in assay [1] is 4.23 µM; in [2], 16.4 µM; in assay [3] it was 5.27 µM; in assay [4], 1.4 µM; in [5], 1.03 µM; in assay [6], 1.77 µM. For the same compound, the GI50 is 1.46 µM in assay [7], 1.73 µM in [8], 2.69 µM in assay [9] and 1.45 µM in [10]. Also, the TGI in [1] turned out to be 13.6 µM; in assay [2], 30.4 µM; in [3], 40 µM; in assay [4] it was 4.77 µM; in assay [5], 2.35 µM; in [6], 3.79 µM. The TGI in assay [7] was found to be 2.87 µM; in assay [8], 3.73 µM; in assay [9] it was 9.55 µM; in assay [10] it was 2.79 µM.

Take `COC(=O)C1=C(C(=O)OC)C2(C)C=CC1O2` (stereo unspecified): the TGI in assay [1] is 54 µM; in [2] it was 29.8 µM; in [3] it was 72 µM; in assay [4] it was 19.4 µM; in assay [5], 2.86 µM; in assay [6], 31.7 µM. Further, the TGI in [7] was 57.6 µM; in assay [8], 43.8 µM; in assay [9], 66.2 µM; in assay [10], 8.24 µM.

For `O=c1/c(=C\c2ccc(F)cc2)sc2n1C(c1ccc(F)cc1)C1=C(N=2)c2ccc3ccccc3c2OCC1` (stereo unspecified), the GI50 in assay [1] is above 100 µM; in assay [2] it was above 100 µM; in assay [3] it was above 100 µM; in assay [4] it was above 29.5 µM; in assay [5], above 100 µM; in assay [6] it was above 100 µM. Also, the GI50 in assay [7], in assay [8], in [9] and in assay [10] was above 100 µM in each case. Also, the TGI in assay [1], in [2], in assay [3], in [4], in assay [5] and in assay [6] was above 100 µM in each case. The TGI in [7], in assay [8], in assay [9] and in assay [10] was above 100 µM throughout.

With `CC(C)=CCC(OC(=O)C=C(C)C)C1=CC(=O)c2c(O)ccc(O)c2C1=O` (stereo unspecified), the GI50 is 20 µM in [1]; 12.7 µM in assay [2]; 14.3 µM in assay [3]; 0.0709 µM in [4]; 0.5 µM in assay [5]; 2.27 µM in assay [6]. Besides, the GI50 was 2.97 µM in [8], 3.87 µM in [9] and 0.738 µM in assay [10]. For the same compound, the TGI in assay [1] was 39 µM and 5.39 µM; in assay [2], 26.7 µM and 6.44 µM; in [3], 65.2 µM; in assay [4] it was 1.13 µM and 1.35 µM; in assay [5], 2.07 µM and 2.62 µM; in [6], 7.19 µM and 2.98 µM. Further, the TGI in [7] was 0.533 µM and 0.467 µM; in assay [8], 12.1 µM and 5.85 µM; in assay [9], 16.3 µM and 13.7 µM; in assay [10] it was 2.41 µM.

Regarding `OCc1ccc(-c2cscc2-c2ccc(CO)o2)o1`, the GI50 in [1] was 0.0156 µM; in assay [2] it was 24.2 µM; in assay [3] it was above 78.3 µM; in [4] it was 7.02 µM; in assay [5] it was 4.04 µM; in [6], 29.9 µM. The GI50 in assay [7] is above 20.8 µM; in assay [8], 22.5 µM; in assay [9], 34.5 µM; in [10], above 100 µM. In addition, the TGI in assay [1] was 0.0381 µM; in [2], above 96.6 µM; in assay [3], above 100 µM; in assay [4], above 100 µM; in [5] it was 30.6 µM; in assay [6] it was above 100 µM. Further, the TGI in assay [7] was above 89.5 µM; in [8], above 100 µM; in assay [9], above 100 µM; in assay [10], above 100 µM.

For `O=C1CC(c2[nH]nc3ccccc23)C(=O)N1c1ccccc1` (stereo unspecified), the TGI in [1] is above 100 µM; in [2], above 100 µM; in assay [3], above 100 µM; in assay [4] it was above 80.1 µM; in assay [5], above 100 µM; in [6], above 100 µM. Further, the TGI in assay [7], in [8], in assay [9] and in assay [10] was above 100 µM each time.

For the compound `S=c1nc(N/N=C/c2ccco2)c2cn[nH]c2[nH]1`, the GI50 in [1] is 3.23 µM; in [2] it was 22.4 µM; in [3] it was 42.5 µM; in assay [4], 39.9 µM; in assay [5], 32.3 µM; in [6], 69.2 µM. Also, the GI50 in [7], in assay [8], in assay [9] and in [10] was above 100 µM each time. The TGI in assay [1] is 22.5 µM; in [2], 88.7 µM; in assay [3], above 100 µM; in assay [4], above 100 µM; in [5], above 100 µM; in [6] it was above 100 µM. The TGI in [7], in assay [8], in assay [9] and in [10] was above 100 µM in each case.
